For eight compounds, Ki results are on record in ChEMBL document CHEMBL1667798, “Synthesis of new isoxazoline-based acidic amino acids and investigation of their affinity and selectivity profile at ionotropic glutamate receptors” (Eur J Med Chem, 2011).

One assay has as its target Glutamate NMDA receptor. Description: Displacement of [3H]CPP from NMDA receptor in Sprague-Dawley rat brain synaptic membrane after 60 mins by scintillation counting. A general note: Loss of bound radioactivity is the signal in a displacement assay; it reports binding, not function.
As a reminder, the Ki is the dissociation constant of the complex between target and ligand, obtained from inhibition or displacement. A higher Ki goes with lower affinity. With `Cc1onc(C(=O)O)c1CC(N)C(=O)O` (racemic), the Ki is above 100 µM.

Biological target in another assay: not listed separately
Description: Displacement of [3H]AMPA from AMPA receptor in Sprague-Dawley rat brain synaptic membrane after 30 mins by scintillation counting.
`Cc1onc(C(=O)O)c1CC(N)C(=O)O` (racemic): the Ki is 0.02 µM.
The same measure, in the same setting: the same measure for `C[C@@H]1ON=C(C(=O)O)[C@@H]1C[C@H](N)C(=O)O` (racemic): above 100 µM.
Still for that read-out and setting: the same measure for `C[C@@H]1ON=C(C(=O)O)[C@@H]1C[C@@H](N)C(=O)O` (racemic): above 100 µM.
Still for that read-out and setting: to `C[C@H]1C(C(=O)O)=NO[C@H]1C[C@@H](N)C(=O)O` (racemic) belongs 4.1 µM; to `C[C@H]1C(C(=O)O)=NO[C@H]1C[C@H](N)C(=O)O` (racemic), 31 µM.
Compound `N[C@H](C[C@H]1CC(C(=O)O)=NO1)C(=O)O` (racemic) displayed a Ki above 100 µM.
The compound `N[C@@H](C[C@H]1CC(C(=O)O)=NO1)C(=O)O` (racemic) returned an inhibitory constant (Ki) above 100 µM.
For the compound `N[C@@]1(C(=O)O)C[C@@H]2ON=C(C(=O)O)[C@@H]2C1` (racemic), the Ki was above 100 µM.

A further assay addresses Glutamate NMDA receptor. Description: Displacement of [3H]CGP 39653 from NMDA receptor in Sprague-Dawley rat brain synaptic membrane after 60 mins by scintillation counting.
In turn, `C[C@@H]1ON=C(C(=O)O)[C@@H]1C[C@H](N)C(=O)O` (racemic) gave a Ki of 18 µM. In other words, the double-digit micromolar range.
`C[C@@H]1ON=C(C(=O)O)[C@@H]1C[C@@H](N)C(=O)O` (racemic) showed a Ki of 60 µM.
The same measure, in the same setting: to `C[C@H]1C(C(=O)O)=NO[C@H]1C[C@@H](N)C(=O)O` (racemic) belongs 3 µM.
On to `C[C@H]1C(C(=O)O)=NO[C@H]1C[C@H](N)C(=O)O` (racemic), for which the Ki stood at 5.1 µM.
Still for that read-out and setting: to `N[C@H](C[C@H]1CC(C(=O)O)=NO1)C(=O)O` (racemic) belongs 0.21 µM; to `N[C@@H](C[C@H]1CC(C(=O)O)=NO1)C(=O)O` (racemic), 0.96 µM.

Biological target in a further assay: not listed separately
Description: Displacement of [3H]KAIN from kainate receptor in Sprague-Dawley rat brain synaptic membrane after 60 mins by scintillation counting.
The compound `Cc1onc(C(=O)O)c1CC(N)C(=O)O` (racemic) returned a Ki of 6.3 µM.
Compound `C[C@@H]1ON=C(C(=O)O)[C@@H]1C[C@H](N)C(=O)O` (racemic) registered a Ki above 100 µM.
Regarding `C[C@@H]1ON=C(C(=O)O)[C@@H]1C[C@@H](N)C(=O)O` (racemic), the Ki was above 100 µM.
Still for that read-out and setting: the same measure for `C[C@H]1C(C(=O)O)=NO[C@H]1C[C@@H](N)C(=O)O` (racemic): above 100 µM; for `C[C@H]1C(C(=O)O)=NO[C@H]1C[C@H](N)C(=O)O` (racemic): 56 µM.
`N[C@H](C[C@H]1CC(C(=O)O)=NO1)C(=O)O` (racemic) displayed a Ki above 100 µM.
Consider `N[C@@H](C[C@H]1CC(C(=O)O)=NO1)C(=O)O` (racemic), for which the Ki was above 100 µM.
Consider `N[C@@]1(C(=O)O)C[C@@H]2ON=C(C(=O)O)[C@@H]2C1` (racemic), for which the Ki is above 100 µM.
